Measured values: patent publication US10640534B2 (Agios Pharmaceuticals, Inc., priority 2012, dated 2020)

system: U87MG cells; experiment: Cellular assay, inhibition of 2-HG production in U87MG cells; format: cell-based; conditions: Homo sapiens, U-87 MG, 48 h
Description: Cells (HT1080 or U87MG) are grown in T125 flasks in DMEM containing 10% FBS, 1× penicillin/streptomycin and 500 ug/mL G418 (present in U87MG cells only). They are harvested by trypsin and seeded into 96 well white bottom plates at a density of 5000 cell/well in 100 ul/well in DMEM with 10% FBS. […] Cells are incubated overnight at 37° C. in 5% CO2. The next day test compounds are made up at 2× the final concentration and 100 ul are added to each cell well. The final concentration of DMSO is 0.2% and the DMSO control wells are plated in row G. The plates are then placed in the incubator for 48 hours. […] The cell plate is placed back in the incubator for another 24 hours. At 72 hours post compound addition, 10 mL/plate of Promega Cell Titer Glo reagent is thawed and mixed. The cell plate is removed from the incubator and allowed to equilibrate to room temperature. Then 100 ul of Promega Cell Titer Glo reagent is added to each well of media. The cell plate is then placed on an orbital shaker for 10 minutes and then allowed to sit at room temperature for 20 minutes. The plate is then read for luminescence with an integration time of 500 ms.

| SMILES | IC50 [nM] |
| --- | --- |
| CC(C)(C)OC(=O)N1CC(=O)N(c2cc(C#N)ccn2)[C@H](C(=O)N(c2cccc(F)c2)[C@H](C(=O)NC2CC(F)(F)C2)c2ccccc2Cl)C1 [Compound 89, (3S)-tert-Butyl 3-((1-(2-chlorophenyl)-2-((3,3-difluorocyclobutyl)amino)-2-oxoethyl)(3-fluorophenyl)carbamoyl)-4-(4-cyanopyridin-2-yl)-5-oxopiperazine-1-carboxylate] | < 100 |
| N#Cc1ccnc(N2C(=O)OCC[C@H]2C(=O)N(c2cccc(F)c2)C(C(=O)NC2CC(F)(F)C2)c2ccccc2Cl)c1 (stereo partly drawn) [Compound 90, (4S)—N-(1-(2-Chlorophenyl)-2-(3,3-difluorocyclobutylamino)-2-oxoethyl)-3-(4-cyanopyridin-2-yl)-N-(3-fluorophenyl)-2-oxo-1,3-oxazinane-4-carboxamide] | < 100 |
| N#Cc1ccnc(N2C(=O)CC[C@H]2C(=O)N(c2cncc(F)c2)C(C(=O)NC2CC(F)(F)C2)c2ccccc2Cl)c1 (stereo partly shown) [Compound 91] | < 100 |
| CC(=O)N1CC(=O)N(c2cc(C#N)ccn2)[C@H](C(=O)N(c2cccc(F)c2)[C@H](C(=O)NC2CC(F)(F)C2)c2ccccc2Cl)C1 [Compound 92, (S)-4-Acetyl-N—((S)-1-(2-chlorophenyl)-2-(3,3-difluorocyclobutylamino)-2-oxoethyl)-1-(4-cyanopyridin-2-yl)-N-(3-fluorophenyl)-6-oxopiperazine-2-carboxamide] | < 100 |
| CC(C)(C)OC(=O)N1CC(=O)N(c2nccc(C#N)n2)[C@H](C(=O)N(c2cc(F)cc(F)c2)[C@H](C(=O)NC2CCC(F)(F)CC2)c2ccccc2Cl)C1 [Compound 93, (S)-tert-Butyl 3-(((S)-1-(2-chlorophenyl)-2-((4,4-difluorocyclohexyl)amino)-2-oxoethyl)(3,5-difluorophenyl)carbamoyl)-4-(4-cyanopyrimidin-2-yl)-5-oxopiperazine-1-carboxylate] | < 100 |

Further lines, results first:

| IC50 [nM] | SMILES |
| --- | --- |
| < 100 | CCOC(=O)CN1C[C@@H](C(=O)N(c2cccc(F)c2)C(C(=O)NC2CC(F)(F)C2)c2ccccc2Cl)N(c2cc(C#N)ccn2)C1=O (stereo partly drawn) [Compound 94, Ethyl 2-((4S)-4-((1-(2-chlorophenyl)-2-((3,3-difluorocyclobutyl)amino)-2-oxoethyl)(3-fluorophenyl)carbamoyl)-3-(4-cyanopyridin-2-yl)-2-oxoimidazolidin-1-yl)acetate] |
| < 100 | CS(=O)(=O)c1cccc(N(C(=O)[C@@H]2CCC(=O)N2c2cc(C#N)ccn2)C(C(=O)NC2CCC(F)(F)CC2)c2ccccc2Cl)c1 (stereo partly drawn) [Compound 95, (2S)—N-(1-(2-Chlorophenyl)-2-((4,4-difluorocyclohexyl)amino)-2-oxoethyl)-1-(4-cyanopyridin-2-yl)-N-(3-(methylsulfonyl)phenyl)-5-oxopyrrolidine-2-carboxamide] |
| < 100 | CS(=O)(=O)c1cccc(N(C(=O)[C@@H]2CCC(=O)N2c2cc(C#N)ccn2)C(C(=O)NC2CC(F)(F)C2)c2ccccc2Cl)c1 (stereo partly drawn) [Compound 96, (2S)—N-(1-(2-Chlorophenyl)-2-((3,3-difluorocyclobutyl)amino)-2-oxoethyl)-1-(4-cyanopyridin-2-yl)-N-(3-(methylsulfonyl)phenyl)-5-oxopyrrolidine-2-carboxamide] |
| < 100 | CC(C)(C)OC(=O)N1CC(=O)N(c2nccc(C#N)n2)[C@H](C(=O)N(c2cc(F)cc(F)c2)[C@H](C(=O)NC2CC(F)(F)C2)c2ccccc2Cl)C1 [Compound 98, (3S)-tert-butyl 3-((1-(2-chlorophenyl)-2-((3,3-difluorocyclobutyl)amino)-2-oxoethyl)(3,5-difluorophenyl)carbamoyl)-4-(4-cyanopyrimidin-2-yl)-5-oxopiperazine-1-carboxylate] |
| < 100 | N#Cc1ccnc(N2C(=O)CNC[C@H]2C(=O)N(c2cc(F)cc(F)c2)[C@H](C(=O)NC2CC(F)(F)C2)c2ccccc2Cl)n1 [Compound 99, (S)—N—((S)-1-(2-chlorophenyl)-2-((3,3-difluorocyclobutyl)amino)-2-oxoethyl)-1-(4-cyanopyrimidin-2-yl)-N-(3,5-difluorophenyl)-6-oxopiperazine-2-carboxamide] |
